Assay results: patent publication US20140263071A1, “METHOD FOR COLLECTING METALS” (CHEMEC OY AB, priority 2011, published 2014)
Marks after values point to notes of the source that are not given here.

Columns and labels:
[1] = Simultaneous collection of Al, Ga and V from TS 5 at pH 0.5 (Example 23); settings: spiked TS 5, pH 0.5, 1a 10 g
Experimental: A test solution containing 1-15 mg/l of Al^3+, Fe^2/3+, Mg^2+, Mn^2+, Ni^2+ and Zn^2+; 0.1-0.9 mg/l of Ca^2+ and Na^+; and trace amount of other Cr^3+, Co^2+, Cu^2+, Eu^3+, La^3+, Nd^3+, Y^3+, UO2^2+ and Nb^5+ cations were prepared.
TS 5 (100 ml) was spiked with known amounts of Al^3+, Ga^3+ and V^4+ Merch Titrisol® standard solutions. After pH of the mixture was adjusted to 0.5 by HNO3 sample A was taken followed by adding 1a (10 g). The mixture was stirred at room temperature for 24 h and sample B was taken. Samples A and B were filtrated separately trough 0.2 μm syringe filter and the concentrations of the studied elements in both solution were determined by using ICP-AES method. The expulsion percent for each element were determined from the concentration differences between the sample A and B. The experimental results are given in Table 17.

[2] = Purification of water draining through the dump site, TS 1 (Example 16)
Experimental: Drainage water sample was taken from dumping site containing polluted soil: ca. 200 mg/l of Ca^2+ and Mg^2+; 0.05-0.3 mg/l of Al^3+, Ba^2+, Mn^2+, Mo^6+, Ni^2+ and Zn^2+; ≦0.05 mg/l of As^3+ (or As^5+), Cd^2+ and Pb^2+; pH 3.53.
Test Sample 1 (TS 1, 100 ml), which initial metal cation concentrations were determined by using ICP-AES method, was treated with 1a (1.0 g) with stirring for 24 h. After filtration trough 0.2 μm syringe filter metal concentrations in solution were determined and removal per cents were calculated. Since TS 1 contained only small amounts of As, Cd and Pb, sample was spiked with known amounts of these metal cations. The spiked sample (100 ml) was treated with 1a (1 g) as original TS 1 sample.

[3] = Effect of complexation agent amount on expulsion percent (Example 11); settings: Ca^2+ 2 ppm, pH 2.9
Experimental: (§1) A water solution (110 ml) containing known amount of single cationic element or elements, typically 0.5-200 ppm, was prepared from Merch Titrisol® standard solution. After adjusting pH by using acid (e.g. HCl or HNO3) or base (e.g. NaOH) to desired initial value, sample A (10 ml) was taken followed by adding 100 mg of selected solid complexation agent. The mixture was stirred at room temperature for 24 h and sample B (10 ml) was taken. Samples A and B were filtrated separately trough 0.2 μm syringe filter and the concentration of the studied element or elements in both solution was determined by using atomic absorption spectrophotometer. The expulsion percent was determined from the concentration differences between the sample solutions A and B.
Effect of amount of complexation agent 1a to expulsion percent was tested with 2.0 ppm calcium (Ca^2+) solution. A solution (100 ml) containing 2.0 ppm of calcium was stirred for 24 h with desired amount of complexation agent 1a (25 to 301 mg) at pH 2.9. Expulsions percent were determined for each solution using the general procedure and the results are collected in Table 6.

[4] = Recycling and regeneration of solid bisphosphonate material (Example 27); settings: 1a 700 mg
Experimental: Compound 1a (700 mg) was weighed on sintered disc (porosity G-4) and aqueous CuCl2x2 H2O (20 ml) solution containing ca. 47 700 ppm of copper was passed slowly through the powder under vacuum. […] After the sintered disc was dry, aqueous HCl (25 ml, 2M) was passed slowly through the sintered disc. During this regeneration process solid bisphoshonate material on sintered disc turned from blue to white and filtered HCl solution was pale blue. The same procedure using the original 1a powder on sintered disc and a fresh CuCl2x2 H2O (20 ml) solution was repeated 20 times. The copper concentrations measured by AAS of the filtered HCl solution was 2294 ppm, 859 ppm and 713 ppm after first, 10th and 20th regeneration cycle, respectively. The amount of 1a after the last regeneration step was 630 mg (90% of the original amount).

[5] = Purification of waste water containing heavy metals, TS 2 (Example 17)
Experimental: Waste water sample from dumping site containing some heavy metals: ca. 2 g/l of Ca^2+; […] of As^3+ (or As^5+), Cr^3+, Fe^2/3+, Pb^2+, Sr^2+, Zn^2+ and Hg^2+; pH 3.56.
TS 2 (100 ml), which initial metal cation concentrations were determined by AAS and ICP-AES methods, was treated with 1a (1.0 g) with stirring for 24 h. After filtration trough 0.2 μm syringe filter metal concentrations in solution were determined.

[6] = Separation of Cr(III) from Cr(VI) (Example 14); settings: pH 4.0, 1a 100 mg
Experimental: as §1
An aqueous solution (100 ml) containing 1.72 ppm of Cr(III) and 1.89 ppm of Cr(VI) was prepared from Merch Titrisol® standard solution and pH was adjusted to 4.0. Following the general procedure described earlier the mixture was treated with 1a (100 mg) and expulsion per for Cr(III) and Cr(VI) were calculated to be 97.0% and 0%, respectively.

NCCCCCCCCCCC(O)(P(=O)(O)O)P(=O)(O)O [Compound 1a, 11-Amino-1-hydroxyundecane-1,1-diyldiphosphonic acid]
Expulsion [%] ([1]; Al^3+): 99.8^1) %
Expulsion [%] ([1]; Cr^3+): 0%
Expulsion [%] ([1]; Fe^2/3+): ≥ 97.0^4) %
Expulsion [%] ([1]; Ga^3+): 93.2^2) %
Expulsion [%] ([1]; Mg^2+): 0%
Expulsion [%] ([1]; Mn^2+): 9%
Expulsion [%] ([1]; Ni^2+): 0%
Expulsion [%] ([1]; V^4+): 99.7^3) %
Expulsion [%] ([1]; Zn^2+): 23%
Expulsion [%] ([2]; Spiked TS 1, Al^3+): 67%
Expulsion [%] ([2]; Spiked TS 1, As^3/5+): 0%
Expulsion [%] ([2]; Spiked TS 1, Ba^2+): 26%
Expulsion [%] ([2]; Spiked TS 1, Ca^2+): 48%
Expulsion [%] ([2]; Spiked TS 1, Cd^2+): 96%
Expulsion [%] ([2]; Spiked TS 1, Mg^2+): 78%
Expulsion [%] ([2]; Spiked TS 1, Mn^2+): ≥ 51^2) %
Expulsion [%] ([2]; Spiked TS 1, Ni^2+): 33%
Expulsion [%] ([2]; Spiked TS 1, Pb^2+): 94%
Expulsion [%] ([2]; Spiked TS 1, Zn^2+): 90%
Expulsion [%] ([2]; TS 1, Al^3+): 76%
Expulsion [%] ([2]; TS 1, Ba^2+): 32%
Expulsion [%] ([2]; TS 1, Ca^2+): 51%
Expulsion [%] ([2]; TS 1, Mg^2+): 81%
Expulsion [%] ([2]; TS 1, Mn^2+): ≥ 57^2) %
Expulsion [%] ([2]; TS 1, Ni^2+): 50%
Expulsion [%] ([2]; TS 1, Zn^2+): 89%
Expulsion [%] ([3]; 25 mg of 1a in 100 ml): 41.3%
Expulsion [%] ([3]; 52 mg of 1a in 100 ml): 45.9%
Expulsion [%] ([3]; 75 mg of 1a in 100 ml): 53.6%
Expulsion [%] ([3]; 101 mg of 1a in 100 ml): 59.4%
Expulsion [%] ([3]; 125 mg of 1a in 100 ml): 63.6%
Expulsion [%] ([3]; 150 mg of 1a in 100 ml): 67.1%
Expulsion [%] ([3]; 175 mg of 1a in 100 ml): 70.2%
Expulsion [%] ([3]; 200 mg of 1a in 100 ml): 71.0%
Expulsion [%] ([3]; 225 mg of 1a in 100 ml): 76.6%
Expulsion [%] ([3]; 250 mg of 1a in 100 ml): 79.6%
Expulsion [%] ([3]; 275 mg of 1a in 100 ml): 85.6%
Expulsion [%] ([3]; 301 mg of 1a in 100 ml): 83.5%
copper concentration of the filtered HCl solution ([4]; after 10th regeneration cycle): 859 ppm
copper concentration of the filtered HCl solution ([4]; after 20th regeneration cycle): 713 ppm
copper concentration of the filtered HCl solution ([4]; after first regeneration cycle): 2294 ppm
Expulsion [%] ([5]; As^3/5+): ≥ 61.7^2) %
Expulsion [%] ([5]; Ca^2+): 75.4%
Expulsion [%] ([5]; Cd^2+): ≥ 89.4^5) %
Expulsion [%] ([5]; Cr^3+): 23.9%
Expulsion [%] ([5]; Fe^2/3+): 22.8%
Expulsion [%] ([5]; Hg^1/2+ (CVAAS)): 99.0^1) %
Expulsion [%] ([5]; Pb^2+): ≥ 68.9^5) %
Expulsion [%] ([5]; Sr^2+): 84.3%
Expulsion [%] ([5]; Zn^2+): 76.8%
expulsion per cent for Cr(III) ([6]; 1.72 ppm Cr(III) with 1.89 ppm Cr(VI)): 97.0%
expulsion per cent for Cr(VI) ([6]; 1.89 ppm Cr(VI) with 1.72 ppm Cr(III)): 0%
